Laboratory results from paper PMC9405596, “Evaluation of the Anti-Leishmania mexicana and -Trypanosoma brucei Activity and Mode of Action of 4,4′-(Arylmethylene)bis(3-methyl-1-phenyl-1H-pyrazol-5-ol)” (Biomedicines, 2022).
Entries after “also recorded” stand apart in the source; their conditions may differ. Read-outs that look alike come from different tables or passages of the source.

Legend:
[1] = system: L. mexicana promastigotes; assay: MTT viability assay against L. mexicana promastigotes; format: cell-based, Leishmania mexicana; conditions: for IC50: 48 h; for L. mexicana Promastigote SI vs. Hepatocytes: CC50 HepG2 hepatocytes/IC50 L. mexicana; for L. mexicana Promastigote SI vs. Macrophage: CC50 RAW macrophages/IC50 L. mexicana
Protocol: The leishmanicidal activity against promastigotes from L. mexicana was evaluated by measuring parasites’ mitochondrial activity using the MTT (Thiazolyl Blue Tetrazolium Bromide) colorimetric assay as described previously. […] The medium was renewed every third day and subcultures were prepared when parasite density reached 1 × 10^7 parasites/mL. A Neubauer chamber was used to determine parasite density.

[2] = MTT cytotoxicity assay, murine macrophages; format: cell-based; conditions: mouse, RAW 264.7 macrophage cells, RAW 264.7, 48 h
Protocol: (§1) Murine macrophages (cell line RAW 264.7, ATCC® TIB-71™) were grown in Dulbecco’s Modified Eagle Medium (DMEM) (Gibco, Invitrogen, Waltham, MA, USA) supplemented with 10% fetal bovine serum (FBS) (Eurobio) and 100 IU/mL penicillin + 100 µg/mL streptomycin (Gibco), at 37 °C, in an atmosphere containing 5% CO2. Human hepatocyte cell line HepG2 (ATCC® HB-8065™) was grown in MEM (Gibco, Invitrogen) supplemented with 10% FBS (Gibco, Invitrogen), 1% NEAA (Gibco, Invitrogen), and 1% L-glutamine (Gibco, Invitrogen). The medium was renewed twice a week. For both cell lines, the viability was determined using the MTT assay as described before for leishmanicidal activity assessment, with some variations. Here, 5 × 10^4 cells/well in a final volume of 100 µL were seeded into a 96-well plate, in triplicate for RAW macrophages and in duplicate for HepG2. Saponin (2.4 mg/mL) and untreated cells were used as positive control and negative control, respectively. Compounds were dissolved in DMSO to obtain different serial concentrations (1.56 to 800 µM) for RAW macrophages and 100–0.001 µM for HepG2. The final concentration of DMSO in each well was 0.5%. After exposure to compounds for 48 h and 72 h for RAW and HepG2 cells, respectively, 10 µL/well of MTT (5 mg/mL in PBS) was added, incubated at 37 °C for 2 h in darkness, and cells were pelleted via centrifugation at 4400 rpm for 10 min. The medium was removed, and 100 µL/well of DMSO was added to dissolve formazan. The absorbance at 570 and 630 nm was recorded following the same procedure as with parasites.

[3] = MTT cytotoxicity assay, HepG2; format: cell-based; conditions: human, HepG2 cells, HepG2, 72 h, read-out: CC50 HepG2 Hepatocytes
Protocol: as §1

[4] = system: bloodstream form of T. b. brucei (strain 427); assay: Bioluminescence viability assay against bloodstream T. b. brucei expressing luciferase; conditions: for activity at 10 µM / IC50 / inhibition at 10 µM: 24 h; for activity at 10 µM: read-out: T. brucei bloodstream % Growth (10 µM), 10 µM, 24 h; for anti-T. brucei activity in preliminary screening, in words: 10 µM; for T. brucei SI vs. Hepatocytes: CC50 HepG2 hepatocytes/IC50 T. brucei; for T. brucei bloodstream SI vs. Macrophages: CC50 RAW macrophages/IC50 T. brucei; for inhibition at 10 µM: read-out: T. brucei growth inhibition at 10 µM
[5] = Leishmania mexicana, read-out: L. mexicana Promastigote IC50, promastigotes, 48 h, MTT
[6] = read-out: L. mexicana Promastigote IC50, promastigotes, MTT
[7] = Trypanosoma brucei, read-out: T. brucei bloodstream IC50, 24 h, bioluminescence

| SMILES | IC50 [1, 5] | CC50 at 48 h [2] | L. mexicana Promastigote SI vs. Hepatocytes [1] | L. mexicana Promastigote SI vs. Macrophage [1] | IC50 [1, 6] | CC50 at 72 h [3] | activity at 10 µM ([4]; Trypanosoma brucei) | melting point | anti-T. brucei activity in preliminary screening, in words [4] | T. brucei SI vs. Hepatocytes [4] | T. brucei bloodstream SI vs. Macrophages [4] | IC50 [4, 7] | IC50 ([4]; read-out: T. brucei bloodstream IC50, bioluminescence) | CC50 at 48 h ([2]; positive control) | inhibition at 10 µM ([4]; Trypanosoma brucei) | SI against T. brucei, range over both mammalian cell lines ([4]; murine macrophages and HepG2 hepatocytes) |
| --- | --- | --- | --- | --- | --- | --- | --- | --- | --- | --- | --- | --- | --- | --- | --- | --- |
| C[C@@H]1[C@H](O)[C@@H](C)/C=C/C=C/C=C/C=C/C=C/C=C/C=C/[C@H](O[C@@H]2O[C@H](C)[C@@H](O)[C@H](N)[C@@H]2O)C[C@@H]2O[C@](O)(C[C@@H](O)C[C@@H](O)[C@H](O)CC[C@@H](O)C[C@@H](O)CC(=O)O[C@H]1C)C[C@H](O)[C@H]2C(=O)O [Amphotericin B, reference compound] | 0.17 ± 0.05 µM | > 5 µM |  |  |  |  |  |  |  |  |  |  |  |  |  |  |
| Cc1nn(-c2ccccc2)c(O)c1C(c1cccc([N+](=O)[O-])c1)c1c(C)nn(-c2ccccc2)c1O [Compound 2d] | ≤ 10 µM | 75 ± 15 µM | >10 | 7.5 | 10 ± 3 µM | > 100 µM | 73 ± 4% |  |  |  |  |  |  |  |  |  |
| Cc1nn(-c2ccccc2)c(O)c1C(c1ccccc1[N+](=O)[O-])c1c(C)nn(-c2ccccc2)c1O [Compound 2c] | 17 ± 8 µM | 53 ± 6 µM | 1.5 | 3.1 |  | 26 ± 16 µM | 68 ± 5% | 210 to 211 °C |  |  |  |  |  |  |  |  |
| CSc1ccc(C(c2c(C)nn(-c3ccccc3)c2O)c2c(C)nn(-c3ccccc3)c2O)cc1 [Compound 2u] | 30 ± 10 µM | 96 ± 27 µM | 0.7 | 3.2 |  | 21 ± 10 µM | > 100% | 209.1 to 211.3 °C | inactive |  |  |  |  |  |  |  |
| Cc1nn(-c2ccccc2)c(O)c1C(c1cccc(F)c1)c1c(C)nn(-c2ccccc2)c1O [Compound 2t] | 11 ± 1 µM | 115 ± 21 µM | 1.8 | 10.5 |  | 20 ± 11 µM | > 100% | 178 to 179 °C | inactive |  |  |  |  |  |  |  |
| Cc1nn(-c2ccccc2)c(O)c1C(c1ccc(F)cc1)c1c(C)nn(-c2ccccc2)c1O [Compound 2p] | 17 ± 1 µM | 43 ± 6 µM | 0.8 | 2.5 |  | 13 ± 2 µM | 79 ± 8% | 183.8 to 185.8 °C |  |  |  |  |  |  |  |  |
| Cc1nn(-c2ccccc2)c(O)c1C(c1ccc(OC(F)(F)F)cc1)c1c(C)nn(-c2ccccc2)c1O [Compound 2s] |  | 49 ± 15 µM | 8.7 | 14.3 |  | 26 ± 15 µM | > 100% | 174.5 to 176 °C | inactive |  |  |  |  |  |  |  |
| Cc1nn(-c2ccccc2)c(O)c1C(c1ccccc1C(F)(F)F)c1c(C)nn(-c2ccccc2)c1O [Compound 2v, 4,4′-[(2-trifluoromethylphenyl)methylene]bis(3-methyl-1-phenyl-1H-pyrazol-5-ol)] | ≤ 10 µM | 91 ± 18 µM | 3.5 | 15.1 | 6 ± 1 µM | 21 ± 2 µM |  | 245 to 248 °C | inactive; also recorded: lacked activity |  |  |  |  |  |  |  |
| Cc1nn(-c2ccccc2)c(O)c1C(c1ccccc1)c1c(C)nn(-c2ccccc2)c1O [Compound 2b] | 32 ± 7 µM | 206 ± 28 µM | >3.1 | 6.4 |  | > 100 µM | 74 ± 7% | 159.5 to 161.1 °C |  |  |  |  |  |  |  |  |
| Cc1nn(-c2ccccc2)c(O)c1C(c1cc(O)ccc1[N+](=O)[O-])c1c(C)nn(-c2ccccc2)c1O [Compound 2h] | 21 ± 4 µM | 108 ± 22 µM | >4.8 | 5.1 |  | > 100 µM | 89 ± 3% | 205 to 207 °C (dec.) |  |  |  |  |  |  |  |  |
| COC(=O)c1ccc(C(c2c(C)nn(-c3ccccc3)c2O)c2c(C)nn(-c3ccccc3)c2O)cc1 [Compound 2q] | 13 ± 3 µM | 111 ± 2 µM | 2.2 | 8.5 |  | 29 ± 4 µM | ≤ 50% |  |  | 4.9 | 19 | 6 µM | 5.9 ± 0.6 µM |  |  |  |
| COc1cc(C(c2c(C)nn(-c3ccccc3)c2O)c2c(C)nn(-c3ccccc3)c2O)cc(OC)c1O [Compound 2m] | 23 ± 5 µM | 286 ± 51 µM | >4.3 | 12.4 |  | > 100 µM | > 100% | 208 to 209.5 °C | inactive |  |  |  |  |  |  |  |
| COc1ccc(C(c2c(C)nn(-c3ccccc3)c2O)c2c(C)nn(-c3ccccc3)c2O)cc1 [Compound 2e] | > 50 µM |  |  |  |  |  | > 100% | 176 to 177 °C | inactive |  |  |  |  |  |  |  |
| CC1(C)[C@@H](O[C@@H]2OC[C@H](O[C@@H]3OC[C@@H](O)[C@H](O)[C@H]3O)[C@H](O[C@H]3O[C@H](CO)[C@@H](O)[C@H](O)[C@H]3O)[C@H]2O[C@@H]2O[C@H](CO)[C@@H](O)[C@H](O)[C@H]2O[C@H]2O[C@H](CO)[C@@H](O)[C@H](O)[C@H]2O)CC[C@]2(C)[C@H]3CCC45OCC6(CC[C@@](C)(C=O)C[C@@H]64)[C@H](O)C[C@@]5(C)[C@]3(C)CC[C@@H]12 (stereo partly drawn) [Saponin, reference compound] |  |  |  |  |  |  |  |  |  |  |  |  |  | 160 ± 30 µg/mL |  |  |
| Cc1nn(-c2ccccc2)c(O)c1C(c1ccc(N(C)C)cc1)c1c(C)nn(-c2ccccc2)c1O [Compound 2g] | > 50 µM |  |  |  |  |  | > 100% | 188.8 to 189.6 °C | inactive |  |  |  |  |  |  |  |
| Cc1nn(-c2ccccc2)c(O)c1C(c1ccc(O)cc1)c1c(C)nn(-c2ccccc2)c1O [Compound 2o] | > 50 µM |  |  |  |  |  | > 100% | 217.2 to 218.9 °C | inactive |  |  |  |  |  | 0% |  |
| Cc1nn(-c2ccccc2)c(O)c1C(c1ccc([N+](=O)[O-])cc1)c1c(C)nn(-c2ccccc2)c1O [Compound 2k] | ≤ 10 µM | 117 ± 15 µM | 1.7 | 13 | 9 ± 1 µM | 15 ± 6 µM | 88 ± 4% |  |  |  |  |  |  |  |  |  |
| Cc1nn(-c2ccccc2)c(O)c1C(c1cccc(O)c1)c1c(C)nn(-c2ccccc2)c1O [Compound 2l] | 18 ± 5 µM | 108 ± 33 µM | >5.6 | 6 |  | > 100 µM | > 100% | 165 to 167 °C | inactive |  |  |  |  |  | 0% |  |
| COc1ccccc1C(c1c(C)nn(-c2ccccc2)c1O)c1c(C)nn(-c2ccccc2)c1O [Compound 2f] | 22 ± 9 µM | 93 ± 7 µM | >4.5 | 4.2 |  | > 100 µM | ≤ 50% |  |  | >12.5 | 11.6 | 8 ± 0.27 µM |  |  |  | 11.6–18 |
